Results as given in US20140051706A1 (PRISM PHARMA CO., LTD., priority 2011, published 2014).

Experiment: Plasma stability test
Type: in vitro ADME
Conditions: human fresh plasma; read-out: ½t (plasma half-life)
Description: In the tables mentioned below, data indicated by “½t” means data of plasma half-life (minutes) is determined by plasma stability test that mentioned below.
Determination of Plasma half life was carried out according to the following procedure using the fresh plasma.
1. 0.025 mg/mL spiking solution A: add 10 μL of 0.5 mg/mL stock solution to 190 μL of DMSO. 2. Add 90 μL of plasma into the wells designated for all the time points (0, 5, 10, 30, 60, 90, 120, 240 min). 3. Add 10 μL of pre-warmed spiking solution A into the wells designated for all the time points (0, 5, 10, 30, 60, 90, 120, 240 min). Immediately, add 400 μL of ACN containing IS into the wells designated for 0 min, then start timing. 4. At 5, 10, 30, 60, 90, 120, 240 min, add 400 μL of ACN containing IS into the wells, respectively. 5. Protein is precipitated by centrifugation (4000 rpm, 15 min). 6. Transfer 50 μL of supernatant into 50 μL of ultra-pure water (Millipore) in a 96-well sample plate for LC-MS/MS analysis.

| Structure (SMILES) | half-life at 2.5 µg/mL [h] |
| --- | --- |
| CC(=O)Oc1ccc(C[C@H]2C(=O)N(Cc3cccc4cccnc34)[C@@H](C)C3N2C(=O)CN(C)N3C(=O)NCc2ccccc2)cc1 (stereo partly drawn) [Example I-1, 4-(((6S,9S)-1-(benzylcarbamoyl)-2,9-dimethyl-4,7-dioxo-8-(quinolin-8-ylmethyl)octahydro-1H-pyrazino[2,1-c][1,2,4]triazin-6-yl)methyl)phenyl acetate] | 0.733 |
| CCCCCCCCC(=O)Oc1ccc(C[C@H]2C(=O)N(Cc3cccc4cccnc34)[C@@H](C)C3N2C(=O)CN(C)N3C(=O)NCc2ccccc2)cc1 (stereo partly drawn) [Example I-3, 4-(((6S,9S)-1-(benzylcarbamoyl)-2,9-dimethyl-4,7-dioxo-8-(quinolin-8-ylmethyl)octahydro-1H-pyrazino[2,1-c][1,2,4]triazin-6-yl)methyl)phenyl nonanoate] | 2.77 |
| CCCCC(=O)Oc1ccc(C[C@H]2C(=O)N(Cc3cccc4cccnc34)[C@@H](C)C3N2C(=O)CN(C)N3C(=O)NCc2ccccc2)cc1 (stereo partly drawn) [Example I-2, 4-(((6S,9S)-1-(benzylcarbamoyl)-2,9-dimethyl-4,7-dioxo-8-(quinolin-8-ylmethyl)octahydro-1H-pyrazino[2,1-c][1,2,4]triazin-6-yl)methyl)phenyl pentanoate] | 2.75 |
